{"source": "paper PMC7434922", "about": "“Key role of quinone in the mechanism of respiratory complex I” (Nature Communications, 2020)", "molecules": {"B1": {"name": "Complex I subunit Nqo8 (Thermus thermophilus) (natural protein, T. thermophilus HB8, UniProt Q60019 1-365, looked up)", "chain": "MTWSYPVDPYWMVALKALLVVVGLLTAFAFMTLIERRLLARFQVRMGPNRVGPFGLLQPLADAIKSIFKEDIVVAQADRFLFVLAPLISVVFALLAFGLIPFGPPGSFFGYQPWVINLDLGILYLFAVSELAVYGIFLSGWASGSKYSLLGSLRSSASLISYELGLGLALLAPVLLVGSLNLNDIVNWQKEHGWLFLYAFPAFLVYLIASMAEAARTPFDLPEAEQELVGGYHTEYSSIKWALFQMAEYIHFITASALIPTLFLGGWTMPVLEVPYLWMFLKIAFFLFFFIWIRATWFRLRYDQLLRFGWGFLFPLALLWFLVTALVVALDLPRTYLLYLSALSFLVLLGAVLYTPKPARKGGGA", "notes": "Nqo8, core subunit of the membrane domain of respiratory complex I, Thermus thermophilus HB8; Endogenous subunit inside the crystallised intact complex; source: purified from T. thermophilus HB8 cells as part of intact complex I (anion exchange, cation exchange, gel filtration)"}, "B2": {"name": "Complex I subunit Nqo10 (Thermus thermophilus) (natural protein, T. thermophilus HB8, UniProt Q56225 1-176, looked up)", "chain": "MSLLEGLALFLLLLSGVLVVTLRNAIHAALALILNFLVLAGVYVALDARFLGFIQVIVYAGAIVVLFLFVIMLLFAAQGEIGFDPLVRSRPLAALLALGVAGILAAGLWGLDLAFTQDLKGGLPQALGPLLYGDWLFVLLAVGFLLMAATVVAVALVEPGKASRAKEAEKREEVAR", "notes": "Nqo10, core subunit of the membrane domain of respiratory complex I, Thermus thermophilus HB8; Endogenous subunit inside the crystallised intact complex; source: purified from T. thermophilus HB8 cells as part of intact complex I (anion exchange, cation exchange, gel filtration)"}, "B3": {"name": "Heterologously expressed subunit Nqo16 (ttha1528 gene), His-tagged (natural protein, T. thermophilus HB8, UniProt Q5SI52 1-131, looked up)", "chain": "MVRVGMRAAPRVSLEALKAALGGLKLSEAKVYLITDWQDKRDQARYALLLHTGKKDLLVPDAFGPAFPGGEEALSELVGLLLAQGARRFYEAVVSPGEMTALLDLPPEELLKRVMAIANPTDPGIYLKRAA", "notes": "reverse primer with the stop codon) and cloned into pet16b; Full length is read from the printed primers (start codon in the NdeI site to the stop codon); also called His-tagged Nqo16; source: E. coli BL21(DE3), purified (heat treatment 70 °C, Ni-NTA)"}, "B4": {"name": "Complex I subunit Nqo6 (Thermus thermophilus) (natural protein, T. thermophilus HB8, UniProt Q56218 1-181, looked up)", "chain": "MALKDLFERDVQELEREGILFTTLEKLVAWGRSNSLWPATFGLACCAIEMMASTDARNDLARFGSEVFRASPRQADVMIVAGRLSKKMAPVMRRVWEQMPDPKWVISMGACASSGGMFNNYAIVQNVDSVVPVDVYVPGCPPRPEALIYAVMQLQKKVRGQAYNERGERLPPVAAWKRTRG", "notes": "Nqo6, core subunit of the peripheral arm of respiratory complex I, Thermus thermophilus HB8; Endogenous subunit inside the crystallised intact complex; source: purified from T. thermophilus HB8 cells as part of intact complex I (anion exchange, cation exchange, gel filtration)"}}, "key": {"[1]": {"target": "T1, T. thermophilus complex I (quinone site, Q-site) (Thermus thermophilus, UniProt Q56218+Q56220+Q60019)", "T1 construct": "gene nqo4; native intact complex purified from T. thermophilus HB8 membranes in TDM; 16 subunits, 550 kDa; for crystals recombinant His-tagged Nqo16 (E. coli) was added; activity preparation has sub-stoichiometric Nqo16; with NADH-quinone oxidoreductase subunit 1; NADH-quinone oxidoreductase subunit 2; NADH-quinone oxidoreductase subunit 3; NADH-quinone oxidoreductase subunit 5; NADH-quinone oxidoreductase subunit 7; NADH-quinone oxidoreductase subunit 9; NADH-quinone oxidoreductase subunit 10; NADH-quinone oxidoreductase subunit 11; NADH-quinone oxidoreductase subunit 12; NADH-quinone oxidoreductase subunit 13; NADH-quinone oxidoreductase subunit 14; NADH-quinone oxidoreductase subunit 15; NADH-quinone oxidoreductase subunit 16", "T1 sequence (Q56222 whole entry partner, one chain of several)": "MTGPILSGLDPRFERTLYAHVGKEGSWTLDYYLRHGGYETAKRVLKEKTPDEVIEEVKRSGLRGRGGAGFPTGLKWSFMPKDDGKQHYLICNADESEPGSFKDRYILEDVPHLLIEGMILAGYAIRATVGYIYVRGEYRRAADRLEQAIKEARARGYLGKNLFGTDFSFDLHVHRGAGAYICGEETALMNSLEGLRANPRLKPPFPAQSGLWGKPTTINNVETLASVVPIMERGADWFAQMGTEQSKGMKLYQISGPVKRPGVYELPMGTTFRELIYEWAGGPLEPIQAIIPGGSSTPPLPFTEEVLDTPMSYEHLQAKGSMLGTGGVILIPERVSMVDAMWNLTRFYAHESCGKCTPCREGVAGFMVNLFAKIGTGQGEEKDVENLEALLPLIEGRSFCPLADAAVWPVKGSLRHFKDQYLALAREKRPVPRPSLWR", "experiment": "NADH:DQ oxidoreductase activity, absorbance at […] nm", "type": "biochemical"}, "[2]": {"target": "T1, T. thermophilus complex I (quinone site, Q-site)", "experiment": "biochemical", "set-up": "NADH:decylubiquinone oxidoreductase activity of purified complex I, NADH absorbance at 340 nm, 50 °C", "protocol": "Complex I activity was measured at 50 °C with DQ as an electron acceptor. To a 2 mL quartz cuvette containing DQ assay buffer (50 mM Bis–Tris pH 6.0, 25 mM NaCl, 2 mM CaCl2), 0.25 mg mL^−1 asolectin (Fluka), 8 μg mL^−1 complex I protein, and 100 μM DQ were added. The sample was incubated for 5 min whilst stirred at 400 rpm, to allow for the equilibration of the protein/DQ/lipid/detergent mixture. The reaction was started by adding 100 μM NADH and the change in absorbance was followed at 340 nm, over 30 s under constant stirring. Specific enzyme activity was calculated in μmol NADH oxidized mg^−[…]. When required, inhibitors of complex I were added after DQ, prior to the 5-min incubation period. Lipids were prepared by mixing asolectin in a small volume of chloroform (1 mL) before evaporating the solvent under a stream of nitrogen gas, and were resuspended in 1% CHAPS to a final concentration of 5 mg mL^−1 before use. […] IC50’s for a range of common complex I inhibitors are listed in the Supplementary Table 3. […] Crystal structures of complex I with bound DQ and Q-like inhibitors also show a rotation of PA, like that observed in MJ–MN transition. However, its degree of torsion depends strongly on the Q-ligand, with DQ introducing the largest conformational change (Supplementary Fig. 7d, e). All Q-like ligands studied here display a similar pattern of interactions at the deepest end of the Q-cavity, with the headgroup about 12 Å away from cluster N2 (Fig. 4). A shared feature between all ligands bound in the Q-site is a hydrogen bond interaction of a ketone group from the quinone ring with the conserved and essential for complex I activity Y87_4[16],[36]. Other key residues, such as H38_4 from the key β1–β2 loop (33-QHPSTHG-39) in Nqo4 and M51_6, also contribute to the stabilization of the quinone ring, while secondary residues are involved specifically in the binding of each ligand (Fig. 4 and Supplementary Fig. 2). […] In the case of [compound left out], H38_4 stabilizes its outer ether group, while M51_6 interacts with the oxygen in the furanose ring (Fig. 4c). The distal nitrobenzene moiety is surrounded by both charged and nonpolar residues that, despite the lack of direct interaction, might form a suitable pocket for its accommodation."}, "[3]": {"target": "T2, Complex I subunit Nqo4 (Thermus thermophilus) (T. thermophilus HB8, UniProt Q56220 1-409)", "T2 construct": "Nqo4, core subunit of the peripheral arm of respiratory complex I, Thermus thermophilus HB8; Endogenous subunit inside the crystallised intact complex; source: purified from T. thermophilus HB8 cells as part of intact complex I (anion exchange, cation exchange, gel filtration)", "T2 sequence (looked up)": "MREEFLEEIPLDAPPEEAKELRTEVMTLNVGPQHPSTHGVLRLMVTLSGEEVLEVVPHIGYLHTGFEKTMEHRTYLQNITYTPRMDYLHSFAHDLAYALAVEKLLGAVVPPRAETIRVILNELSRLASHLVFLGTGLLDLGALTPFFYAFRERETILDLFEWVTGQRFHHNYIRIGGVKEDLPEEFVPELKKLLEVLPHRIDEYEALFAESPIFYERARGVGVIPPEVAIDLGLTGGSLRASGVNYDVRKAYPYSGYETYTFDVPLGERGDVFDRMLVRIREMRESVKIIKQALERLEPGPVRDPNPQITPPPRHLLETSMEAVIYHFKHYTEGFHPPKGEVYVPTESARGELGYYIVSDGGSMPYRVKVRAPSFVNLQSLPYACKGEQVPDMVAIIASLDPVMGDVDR", "experiment": "crystal structure; intact complex I purified from T. thermophilus mixed with purified recombinant Nqo16 (1:0.2 CXI:Nqo16), sitting drop at 23 °C, 100 mM Bis-Tris pH 6.0, 19-25% PEG 4000, 100 mM KCl, 100 mM glutaric acid, detergents; native crystals and crystals soaked or co-crystallised with NADH, decylubiquinone, piericidin A, aureothin or pyridaben", "conditions": "both partners purified"}, "[4]": {"target": "B1", "experiment": "crystal structure; intact complex I purified from T. thermophilus mixed with purified recombinant Nqo16 (1:0.2 CXI:Nqo16), sitting drop at 23 °C, 100 mM Bis-Tris pH 6.0, 19-25% PEG 4000, 100 mM KCl, 100 mM glutaric acid, detergents; native crystals and crystals soaked or co-crystallised with NADH, decylubiquinone, piericidin A, aureothin or pyridaben", "conditions": "both partners purified"}, "[5]": {"target": "T3, Intact complex I (NADH:ubiquinone oxidoreductase) purified from Thermus thermophilus, the form without Nqo16 (T. thermophilus HB8, UniProt Q56222 1-438; Q56221 1-181; Q56223 1-783; Q56220 1-409; Q56219 1-207; Q56218 …)", "T3 construct": "Nqo1, complex I subunit, Thermus thermophilus HB8; Nqo2, complex I subunit, Thermus thermophilus HB8; Nqo3, complex I subunit, Thermus thermophilus HB8; Nqo4, complex I subunit, Thermus thermophilus HB8; Nqo5, complex I subunit, Thermus thermophilus HB8; Nqo6, complex I subunit, Thermus thermophilus HB8; Nqo7, complex I subunit, Thermus thermophilus HB8; Nqo8, complex I subunit, Thermus …", "experiment": "crystal structure; intact complex I purified from T. thermophilus mixed with purified recombinant Nqo16 (1:0.2 CXI:Nqo16), sitting drop at 23 °C, 100 mM Bis-Tris pH 6.0, 19-25% PEG 4000, 100 mM KCl, 100 mM glutaric acid, detergents; native crystals and crystals soaked or co-crystallised with NADH, decylubiquinone, piericidin A, aureothin or pyridaben", "conditions": "both partners purified"}}, "data": [{"molecule": "COc1oc([C@H]2C/C(=C/C(C)=C/c3ccc([N+](=O)[O-])cc3)CO2)c(C)c(=O)c1C", "note": "[AUT, aureothin]", "values": [{"measurement": "IC50", "setting": "[1]; read-out: IC50", "result": 10.3, "unit": "nM"}]}, {"molecule": "COc1cc(CNC(=O)CCCC/C=C/C(C)C)ccc1O", "note": "[Capsaicin]", "values": [{"measurement": "IC50", "setting": "[2]; read-out: IC50 (µM in cell)", "result": 197, "unit": "µM"}]}, {"molecule": "Cc1nn(C)c(Oc2ccccc2)c1/C=N/OCc1ccc(C(=O)OC(C)(C)C)cc1", "note": "[Fenpyroximate]", "values": [{"measurement": "IC50", "setting": "[2]; read-out: IC50 (nM in cell)", "result": 0.63, "unit": "µM"}]}, {"molecule": "C/C=C(\\C)[C@H](O)[C@H](C)/C=C(C)/C=C/C/C(C)=C/Cc1nc(OC)c(OC)c(O)c1C", "note": "[PIE, piericidin A]", "values": [{"measurement": "IC50", "setting": "[1]", "result": 31, "unit": "nM"}]}, {"molecule": "CC(C)(C)c1ccc(CSc2cnn(C(C)(C)C)c(=O)c2Cl)cc1", "note": "[PYR, pyridaben]", "values": [{"measurement": "IC50", "setting": "[1]; read-out: IC50", "result": 15.6, "unit": "nM"}]}, {"molecule": "CCCCCCCCCC[C@H](O)[C@H]1CC[C@@H]([C@@H]2CC[C@H]([C@H](O)CCCCCCCCCC[C@@H](O)CC3=C[C@H](C)OC3=O)O2)O1", "note": "[Rolliniastatin-1]", "values": [{"measurement": "IC50", "setting": "[2]; read-out: IC50 (nM in cell)", "result": 0.93, "unit": "µM"}]}, {"molecule": "C/C=C(C)/C=C/C=C/[C@H](OC)[C@@H](C)[C@@H](OC)[C@@H](C)CCc1oc2c(O)c(OC)cc(OC)c2c(=O)c1C", "note": "[Stigmatellin]", "values": [{"measurement": "IC50", "setting": "[2]; read-out: IC50 (µM in cell)", "result": 60, "unit": "µM"}]}, {"molecule": "C=C(C)[C@H]1Cc2c(ccc3c2O[C@@H]2COc4cc(OC)c(OC)cc4[C@@H]2C3=O)O1", "note": "[rotenone]", "values": [{"measurement": "IC50", "setting": "[1]; read-out: IC50", "result": 190, "unit": "nM"}]}, {"molecule": "B1", "values": [{"measurement": "binding result", "setting": "[3]", "result": "binds"}]}, {"molecule": "B2", "values": [{"measurement": "binding result", "setting": "[4]", "result": "binds"}]}, {"molecule": "B3", "values": [{"measurement": "binding result", "setting": "[5]", "result": "binds"}]}, {"molecule": "B4", "values": [{"measurement": "binding result", "setting": "[4]", "result": "binds"}]}]}
